Laboratory results: patent publication US6787530B1, “Use of pregnane-diones as analgesic agents” (priority 1996, dated 2004)
Entries after “also recorded” stand apart in the source; their conditions may differ.

Legend:
[1] = test system: patients scheduled for knee reconstruction surgery; assay: Phase 1 study of oral alphadolone after knee reconstruction surgery: pain scores, PCA morphine consumption, CPM; assay type: in vivo, human; conditions: for morphine consumption from the PCA machine vs total range of placebo patients: single patients at 100, 250 and 500 mg orally
Source text: A pilot clinical study entitled “Investigation of the analgesic properties of alphadolone acetate administered orally to man—a dose escalation and efficacy study” was submitted to Monash Medical Centre Human Research and Ethics Committee A. It was approved and registered with the Therapeutics Goods Administration it Canberra under the Clinical Trials Notification (CTN) scheme. This was a small pilot study of phase 1 type design but incorporating some randomisation and placebo control because of the nature of the measurements, i.e. subjective pain measurements. The study was performed prospectively, one in three patients randomised to receive placebo formulation (lactose) and double-blind i.e. neither the patient nor the observer (a research anaesthetic registrar) were aware of the nature of the treatment, placebo or alphadolone.
(§1) The study consisted of two phases. The first phase was a dose escalation study. At any time during this phase as well as the second phase, if the patient was randomised to receive placebo then a capsule containing lactose was administered orally at the time of medication. If the patient was randomised to receive alphadolone then the first patient so randomised received 25 mg alphadolone acetate orally. The patient was monitored for efficacy of the medication and side effects. If there were no unacceptable side effects such as respiratory depression or severe sedation or disorientation then the next patient randomised to receive the active treatment received a higher dose. The dose escalation planned was in the order, 25, 50, 100, 250, 500 and 1000 mg. The original plan was to continue dose escalation until unacceptable side effects occurred and then to reduce the dose to go onto the next, second, phase of the study, a double-blind comparison of the dose just below the high dose that produced unacceptable side effects compared with placebo. However, the view of the Ethics Committee was that this was more appropriate to a drug company sponsored trial and they ordered that the trial should switch from the dose escalation phase to the comparison phase when there was clear evidence of efficacy.
Thus in the second phase of the study, a double-blind comparison of 250 mg of alphadolone with placebo was carried out. Patient 8, 10, 13 and 14 received 250 mg of alphadolone and patient 9, 11 and 12 received placebo.
14 patients scheduled for knee reconstruction surgery were recruited to this study. On the day prior to surgery for morning surgical patients or on the morning prior to afternoon surgery in those patients scheduled for afternoon lists, written informed consent was obtained from the patients after inclusion and exclusion criteria were met. The patient had to be ASA class 1 or 2, between 18 and 70 years, not using regular analgesics apart from paracetamol and non-steroid anti-inflammatory drugs. These were withheld on the day of surgery. The patient also had to have no renal, hepatic or respiratory disease other than mild asthma and could not be pregnant. No epidural/spinal/knee local anaesthetic or opioid injections were allowed. All patients had to receive post-operative morphine from a patient controlled analgesia device. After obtaining informed consent the patients were then given an opportunity to familiarise themselves with the PCA machine and also practice completing the visual analogue and verbal rating scales used for post-operative assessments.
No premedication was given. The patients were taken to the operating theatre and subjected to a standardised anaesthetic regime that consisted of a propofol induction followed by a propofol infusion and the muscle relaxant of the anaesthetist's preference The trachea was intubated and lungs ventilated with a mixture of nitrous oxide and oxygen. Morphine 1-2 mg intravenously was given as indicated by normal signs of depth of anaesthesia. The amount of morphine used in the operating theatre was recorded in the case record form. […]

[2] = Glaxo in-house experiments; cited from earlier work
[3] = test system: patients scheduled for knee reconstruction surgery; assay: Phase 1 study of oral alphadolone: side effects (sedation, nausea, respiratory depression, disorientation); assay type: in vivo, human
Experimental: as §1
No premedication was given. The patients were taken to the operating theatre and subjected to a standardised anaesthetic regime that consisted of a propofol induction followed by a propofol infusion and the muscle relaxant of the anaesthetist's preference The trachea was intubated and lungs ventilated with a mixture of nitrous oxide and oxygen. Morphine 1-2 mg intravenously was given as indicated by normal signs of depth of anaesthesia. The amount of morphine used in the operating theatre was recorded in the case record form. After the end of surgery, the muscle relaxant was reversed with atropine and neostigmine and the patient sent to recovery. In the recovery ward the patient was reintroduced to the patient controlled analgesia machine containing morphine to deliver a dose of 1 mg increments with a lock out time of 5 minutes. The patient spent approximately half an hour in recovery ward and was then sent to the ward. The following observations and measurements were made one hour before, half an hour before, and just before giving the test medication (placebo or alphadolone) orally with 100 ml of water. The observations were continued every half hour thereafter until six hours after the capsule had been given:
Sedation on a four point score none, mild, moderate, unseasonable;
Nausea score rating none, mild, moderate, severe vomiting;
Respiratory depression scores as
none—respiratory rate greater than 10 oxygen saturation greater than 95%
mild—respiratory rate great than 6 and less than 10 oxygen saturation greater than 95%
moderate—respiratory rate less than 6 but oxygen saturation greater than 95%
unreasonable—respiratory rate less than 6 and/or oxygen saturation less than 95%
Light-headedness scored from none (no dizziness), mild (light dizziness but no nystagmus), moderate (feels dizzy and has nystagmus), severe (very dizzy with nausea);
Slurred speech scored as none, mild, moderate, severe;
Presence of disorientation;
Gaze evoked nystagmus scored as none, mild (1-2 jerks), moderate (constant slow jerks), severe (fast jerks and feeling dizzy);
Lack of co-ordination with two tests (a) close eyes touch nose with finger (b) touch 1, 2, 3, 4 fingers in turn with thumb; classified as none (both tests accomplished), mild (both tests accomplished but slowly), moderate (one test achieved after two attempts), severe (failed both tests after two attempts at each).
The total number of 0's, 1's, 2's, 3's and 4's recorded during the six hours after capsule administration were totalled for the five placebo treated and seven alphadolone treated patients and entered into a contingency table (table 2).

[4] = test system: spinal cord GABAA receptors; assay type: in vivo, rat
Source text: Groups of 10 rats were examined for the duration of the loss of righting reflex and loss of coordination in the rotarod test and also for antinociceptive effects in the electrical current threshold test measured in the tail. […] Thus we were able to compare the duration of sedation and anaesthesia and quantity of antinociception following intraperitoneal administration of the neurosteroid mixture and also following the components of the mixture at the doses which were given when the combination was used.
Rats were given a range of doses of alphadolone from 0.1 to 100 mg/kg intraperitoneally. The antinociceptive effect was measured using electrical current in the tail.

[5] = up to six hours after capsule, 100, 250 and 500 mg orally, n = 7
[6] = six hours after capsule, 100, 250 and 500 mg orally, n = 7

Which results are given for CC(=O)OCC(=O)[C@H]1CC[C@H]2[C@@H]3CC[C@H]4C[C@H](O)CC[C@]4(C)[C@H]3C(=O)C[C@]12C [alphadolone, 21-acetoxy-3alpha-hydroxy-5alpha-pregnane-11,20-dione]?
morphine requirement and pain relief after major knee surgery ([1]; 250 mg and 500 mg given orally): reduced the morphine requirement for pain relief after major knee surgery and at the same time improved the pain relief; morphine sparing over six hours ([1]; (3.62÷12.42)×100% vs placebo): 29.1%; mean morphine usage during the six-hour period after capsule ingestion ([1]; PCA morphine, alphadolone treated patients (placebo 12.42 mg)): 8.8 mg; Standardised VAS scores; Mann-Whitney U-Test, Mean rank ([1]; VAS after capsule as ratio of pre-capsule readings, six hours, 100, 250 and 500 mg orally): 82.85; morphine consumption from the PCA machine vs total range of placebo patients ([1]; between one and six hours after capsule): fell outside the total range of morphine used by placebo treated patients; verbal rating pain scores compared with placebo (chi squared test) ([1]; n = 7 vs placebo n = 5, p=0.006): significantly lower pain scores; standardised visual analogue scores compared with placebo (Mann-Whitney U-test) ([1]; n = 7 vs placebo n = 5, p=0.0117): significantly lower standadised visual analogue scores; morphine usage compared with placebo (chi-square) ([1]; p=0.0153, p=0.00651 with 3 and 4 mg cells combined): use less than placebo treated patients; Morphine doses in half-hour periods: 0 mg, frequency ([1]; six hours after capsule, n = 7): 39; Morphine doses in half-hour periods: 1 mg, frequency ([1]; six hours after capsule, n = 7): 29; Morphine doses in half-hour periods: 2 mg, frequency ([1]; six hours after capsule, n = 7): 15; Morphine doses in half-hour periods: 3 mg, frequency ([1]; six hours after capsule, n = 7): 1; Morphine doses in half-hour periods: 4 mg, frequency ([1]; six hours after capsule, n = 7): 0; morphine usage with increasing alphadolone dose ([1]; six hours after capsule, single patients at 25, 50 and 100 mg orally): progressive reduction in morphine usage; morphine consumption from the PCA machine vs total range of placebo patients ([1]; six hours after capsule): fell outside the total range of the morphine consumption of placebo treated patients; Verbal rating scales for pain: Mild, frequency [1, 5]: 53; Verbal rating scales for pain: Moderate, frequency [1, 5]: 20; Verbal rating scales for pain: No pain, frequency [1, 5]: 6; Verbal rating scales for pain: Severe, frequency [1, 5]: 4; intravenous anaesthetic potency relative to alphaxolone [2]: one-third the potency; side effects: sedation, nausea, disorientation, respiratory depression ([3]; dose escalation, 25 to 500 mg orally, humans): No sedation, nausea or disorientation or respiratory depression; also recorded: well tolerated up to a dose of 500 mg orally; also recorded: no sedation or disorientation whatsoever; nausea score and sedation score compared with placebo (chi-square) ([3]; n = 7 vs placebo n = 5, P=0.9459 nausea, P=0.8661 sedation): no significant difference; Nausea score 0 (none), number of scores [3, 6]: 72; Nausea score 1 (mild), number of scores [3, 6]: 10; Nausea score 2 (moderate), number of scores [3, 6]: 1; Sedation score 0 (none), number of scores [3, 6]: 20; Sedation score 1 (mild), number of scores [3, 6]: 48; Sedation score 2 (moderate), number of scores [3, 6]: 15; dose response of antinociceptive effect (electrical current in the tail) ([4]; 0.1 to 100 mg/kg intraperitoneally, rats): dose-related increase in antinociceptive effect; antinociceptive effects in the electrical current threshold test measured in the tail ([4]; ip, Saffan 2 ml/kg, alphaxalone 18 mg/kg, alphadolone 6 mg/kg, groups of 10 rats): all of the antinociceptive effects of the Saffan mixture could be achieved with alphadolone alone
